The text below walks through data of ChEMBL document CHEMBL3991601, “The target landscape of clinical kinase drugs” (Science, 2017).

Active and inactive are the calls of the source. For most assays here, no stated cut-off is given here; in the data, actives have a measured Kd and inactives only a lower limit.

For test [1], the target named is Serine/threonine-protein kinase B-raf (Homo sapiens, UniProt P15056).
For test [2], the target named is Cyclin-dependent kinase 4 (Homo sapiens, UniProt P11802).
Cyclin-dependent kinase 4, sequence (P11802 whole entry): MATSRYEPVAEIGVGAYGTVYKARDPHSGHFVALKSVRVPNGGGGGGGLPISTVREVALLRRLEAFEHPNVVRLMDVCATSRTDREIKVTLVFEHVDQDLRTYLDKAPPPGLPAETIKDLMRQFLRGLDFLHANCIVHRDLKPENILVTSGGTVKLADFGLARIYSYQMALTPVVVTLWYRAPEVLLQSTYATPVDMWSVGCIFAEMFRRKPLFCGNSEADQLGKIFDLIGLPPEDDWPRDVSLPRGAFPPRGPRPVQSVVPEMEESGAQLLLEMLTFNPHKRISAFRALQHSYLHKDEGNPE
The target of test [3] is Glycogen synthase kinase-3 beta (Homo sapiens, UniProt P49841).
Glycogen synthase kinase-3 beta, sequence (P49841 whole entry): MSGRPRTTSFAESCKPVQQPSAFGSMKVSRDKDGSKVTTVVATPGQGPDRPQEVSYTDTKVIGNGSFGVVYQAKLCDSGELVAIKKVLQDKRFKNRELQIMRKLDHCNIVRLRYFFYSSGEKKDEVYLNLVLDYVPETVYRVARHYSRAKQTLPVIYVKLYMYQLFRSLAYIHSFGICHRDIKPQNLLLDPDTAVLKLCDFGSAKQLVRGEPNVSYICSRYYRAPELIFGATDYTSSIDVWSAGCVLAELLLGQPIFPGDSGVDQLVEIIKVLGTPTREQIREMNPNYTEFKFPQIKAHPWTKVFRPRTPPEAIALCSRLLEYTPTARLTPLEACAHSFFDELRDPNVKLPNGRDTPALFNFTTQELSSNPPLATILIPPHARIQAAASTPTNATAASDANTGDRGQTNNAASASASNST
Test [4] addresses Cyclin-dependent kinase 12 (Homo sapiens, UniProt Q9NYV4).
In test [5] the target is T1, Mitogen-activated protein kinase 15 (Homo sapiens, UniProt Q8TD08).
T1 sequence (Q8TD08 whole entry): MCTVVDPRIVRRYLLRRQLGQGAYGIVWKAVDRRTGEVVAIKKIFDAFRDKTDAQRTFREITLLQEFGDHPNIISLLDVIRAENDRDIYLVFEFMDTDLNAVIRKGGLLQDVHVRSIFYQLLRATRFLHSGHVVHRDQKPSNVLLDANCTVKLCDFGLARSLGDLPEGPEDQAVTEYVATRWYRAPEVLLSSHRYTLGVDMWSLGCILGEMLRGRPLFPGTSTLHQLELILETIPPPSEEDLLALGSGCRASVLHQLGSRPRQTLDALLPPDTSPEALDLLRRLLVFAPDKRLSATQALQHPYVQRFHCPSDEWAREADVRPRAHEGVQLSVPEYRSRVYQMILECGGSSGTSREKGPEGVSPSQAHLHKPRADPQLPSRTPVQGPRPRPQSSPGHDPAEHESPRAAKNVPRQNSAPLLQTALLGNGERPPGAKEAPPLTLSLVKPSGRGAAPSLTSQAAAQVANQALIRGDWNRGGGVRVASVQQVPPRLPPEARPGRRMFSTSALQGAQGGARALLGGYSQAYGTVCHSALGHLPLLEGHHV

The target in test [6] is Cyclin-dependent kinase 5 (Homo sapiens, UniProt Q00535).
Cyclin-dependent kinase 5, sequence (Q00535 whole entry): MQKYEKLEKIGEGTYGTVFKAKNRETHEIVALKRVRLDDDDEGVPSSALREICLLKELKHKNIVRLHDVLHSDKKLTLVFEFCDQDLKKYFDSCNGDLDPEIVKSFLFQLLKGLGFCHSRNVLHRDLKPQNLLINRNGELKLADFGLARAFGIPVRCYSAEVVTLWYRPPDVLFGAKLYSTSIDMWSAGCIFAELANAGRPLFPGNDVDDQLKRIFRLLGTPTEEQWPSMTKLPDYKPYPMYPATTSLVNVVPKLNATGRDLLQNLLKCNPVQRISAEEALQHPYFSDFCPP
The next test concerns the target Ephrin type-A receptor 4 (Homo sapiens, UniProt P54764).
Test [7] has as its target Mitogen-activated protein kinase 10 (Homo sapiens, UniProt P53779).
Test [8] addresses Adenylate kinase 2, mitochondrial (Homo sapiens, UniProt P54819).
The target of test [9] is T2, cGMP-dependent protein kinase 1 (Homo sapiens, UniProt Q13976).
T2 sequence (Q13976 whole entry): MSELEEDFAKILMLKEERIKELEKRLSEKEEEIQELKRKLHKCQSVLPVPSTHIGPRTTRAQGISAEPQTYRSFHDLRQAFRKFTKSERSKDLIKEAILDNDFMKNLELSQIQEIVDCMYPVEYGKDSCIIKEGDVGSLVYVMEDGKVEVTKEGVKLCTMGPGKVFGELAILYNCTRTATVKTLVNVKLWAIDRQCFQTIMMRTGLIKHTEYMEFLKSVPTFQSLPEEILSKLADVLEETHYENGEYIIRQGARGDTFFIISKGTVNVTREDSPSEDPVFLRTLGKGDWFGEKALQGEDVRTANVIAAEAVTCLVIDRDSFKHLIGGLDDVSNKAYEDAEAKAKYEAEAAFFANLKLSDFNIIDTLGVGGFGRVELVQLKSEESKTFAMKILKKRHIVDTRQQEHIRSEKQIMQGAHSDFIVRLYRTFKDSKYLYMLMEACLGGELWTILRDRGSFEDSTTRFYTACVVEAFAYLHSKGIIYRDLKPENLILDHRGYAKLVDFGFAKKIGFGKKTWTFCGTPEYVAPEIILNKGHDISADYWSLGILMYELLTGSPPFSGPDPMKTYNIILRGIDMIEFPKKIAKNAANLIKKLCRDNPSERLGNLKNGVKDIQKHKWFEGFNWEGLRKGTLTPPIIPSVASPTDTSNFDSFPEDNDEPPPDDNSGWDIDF

For test [10], the target named is Dual specificity protein kinase CLK1 (Homo sapiens, UniProt P49759).
Dual specificity protein kinase CLK1, sequence (P49759 whole entry, canonical isoform): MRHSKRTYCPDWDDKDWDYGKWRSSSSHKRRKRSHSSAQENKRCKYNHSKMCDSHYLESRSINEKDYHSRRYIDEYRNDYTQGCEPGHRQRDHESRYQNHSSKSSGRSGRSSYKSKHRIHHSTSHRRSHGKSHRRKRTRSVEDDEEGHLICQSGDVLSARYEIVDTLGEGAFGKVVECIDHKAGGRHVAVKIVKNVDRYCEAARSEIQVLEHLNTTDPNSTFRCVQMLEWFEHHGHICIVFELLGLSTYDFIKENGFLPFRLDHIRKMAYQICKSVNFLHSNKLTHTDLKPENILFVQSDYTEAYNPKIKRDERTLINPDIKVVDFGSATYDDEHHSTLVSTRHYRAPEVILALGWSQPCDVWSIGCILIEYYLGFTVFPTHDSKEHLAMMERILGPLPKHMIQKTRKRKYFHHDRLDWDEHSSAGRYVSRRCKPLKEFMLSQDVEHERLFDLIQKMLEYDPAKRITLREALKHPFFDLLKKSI
Test [11] addresses Casein kinase I isoform epsilon (Homo sapiens, UniProt P49674).
For test [12], the target named is T3, EKC/KEOPS complex subunit TP53RK (Homo sapiens, UniProt Q96S44).
T3 sequence (Q96S44 whole entry): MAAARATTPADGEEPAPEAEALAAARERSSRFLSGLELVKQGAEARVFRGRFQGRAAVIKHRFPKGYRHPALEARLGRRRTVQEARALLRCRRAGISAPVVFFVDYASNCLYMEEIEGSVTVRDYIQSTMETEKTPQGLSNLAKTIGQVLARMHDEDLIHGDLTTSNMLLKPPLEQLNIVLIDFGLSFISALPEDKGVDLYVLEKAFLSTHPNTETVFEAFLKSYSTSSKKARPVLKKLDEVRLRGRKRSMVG

Test [13] deals with Insulin-like growth factor 1 receptor (Homo sapiens, UniProt P08069).
The target of test [14] is T4, Signal recognition particle receptor subunit alpha (Homo sapiens, UniProt P08240).
T4 sequence (P08240 whole entry): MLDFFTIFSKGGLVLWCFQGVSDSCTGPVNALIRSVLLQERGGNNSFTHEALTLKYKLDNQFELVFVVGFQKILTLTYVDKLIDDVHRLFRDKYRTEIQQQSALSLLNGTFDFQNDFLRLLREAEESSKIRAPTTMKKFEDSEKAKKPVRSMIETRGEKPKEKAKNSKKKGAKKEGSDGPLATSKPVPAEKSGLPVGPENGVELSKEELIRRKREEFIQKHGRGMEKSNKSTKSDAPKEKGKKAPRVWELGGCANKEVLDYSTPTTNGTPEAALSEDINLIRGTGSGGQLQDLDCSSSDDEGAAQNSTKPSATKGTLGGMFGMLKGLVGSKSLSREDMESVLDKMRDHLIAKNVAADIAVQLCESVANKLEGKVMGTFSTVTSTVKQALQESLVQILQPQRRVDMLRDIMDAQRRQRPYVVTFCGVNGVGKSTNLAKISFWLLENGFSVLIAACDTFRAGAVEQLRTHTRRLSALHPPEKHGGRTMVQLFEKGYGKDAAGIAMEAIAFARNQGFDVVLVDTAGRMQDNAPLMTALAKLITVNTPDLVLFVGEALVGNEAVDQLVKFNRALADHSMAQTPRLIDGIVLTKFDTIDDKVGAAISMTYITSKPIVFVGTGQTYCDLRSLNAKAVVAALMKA

The target in test [15] is Serine/threonine-protein kinase/endoribonuclease IRE1 (Homo sapiens, UniProt O75460).
Serine/threonine-protein kinase/endoribonuclease IRE1, sequence (O75460 whole entry): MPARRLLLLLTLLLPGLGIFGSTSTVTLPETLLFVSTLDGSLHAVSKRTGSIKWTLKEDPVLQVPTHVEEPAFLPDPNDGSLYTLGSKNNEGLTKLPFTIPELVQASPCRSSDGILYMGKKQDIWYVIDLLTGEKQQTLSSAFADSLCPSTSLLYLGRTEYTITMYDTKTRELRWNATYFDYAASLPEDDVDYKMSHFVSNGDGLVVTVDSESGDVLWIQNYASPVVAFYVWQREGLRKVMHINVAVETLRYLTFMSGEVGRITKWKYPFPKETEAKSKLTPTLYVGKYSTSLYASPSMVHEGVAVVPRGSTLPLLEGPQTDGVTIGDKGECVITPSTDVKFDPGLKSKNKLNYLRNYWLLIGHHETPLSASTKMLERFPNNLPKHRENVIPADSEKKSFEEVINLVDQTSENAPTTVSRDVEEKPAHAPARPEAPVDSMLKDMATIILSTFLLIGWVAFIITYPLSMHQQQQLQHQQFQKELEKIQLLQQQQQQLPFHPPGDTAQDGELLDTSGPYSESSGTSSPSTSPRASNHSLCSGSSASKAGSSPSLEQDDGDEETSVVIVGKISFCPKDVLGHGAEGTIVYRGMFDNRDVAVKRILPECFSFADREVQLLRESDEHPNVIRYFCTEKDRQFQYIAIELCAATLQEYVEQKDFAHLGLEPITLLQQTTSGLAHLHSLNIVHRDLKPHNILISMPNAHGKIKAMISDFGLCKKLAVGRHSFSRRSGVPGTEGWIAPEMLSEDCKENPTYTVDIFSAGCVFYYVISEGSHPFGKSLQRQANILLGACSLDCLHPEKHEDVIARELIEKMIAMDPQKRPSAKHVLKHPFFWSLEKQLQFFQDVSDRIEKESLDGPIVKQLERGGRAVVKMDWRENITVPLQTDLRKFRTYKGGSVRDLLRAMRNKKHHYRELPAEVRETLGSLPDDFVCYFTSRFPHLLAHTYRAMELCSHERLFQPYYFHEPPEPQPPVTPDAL

Serine/threonine-protein kinase B-raf, sequence (P15056 whole entry): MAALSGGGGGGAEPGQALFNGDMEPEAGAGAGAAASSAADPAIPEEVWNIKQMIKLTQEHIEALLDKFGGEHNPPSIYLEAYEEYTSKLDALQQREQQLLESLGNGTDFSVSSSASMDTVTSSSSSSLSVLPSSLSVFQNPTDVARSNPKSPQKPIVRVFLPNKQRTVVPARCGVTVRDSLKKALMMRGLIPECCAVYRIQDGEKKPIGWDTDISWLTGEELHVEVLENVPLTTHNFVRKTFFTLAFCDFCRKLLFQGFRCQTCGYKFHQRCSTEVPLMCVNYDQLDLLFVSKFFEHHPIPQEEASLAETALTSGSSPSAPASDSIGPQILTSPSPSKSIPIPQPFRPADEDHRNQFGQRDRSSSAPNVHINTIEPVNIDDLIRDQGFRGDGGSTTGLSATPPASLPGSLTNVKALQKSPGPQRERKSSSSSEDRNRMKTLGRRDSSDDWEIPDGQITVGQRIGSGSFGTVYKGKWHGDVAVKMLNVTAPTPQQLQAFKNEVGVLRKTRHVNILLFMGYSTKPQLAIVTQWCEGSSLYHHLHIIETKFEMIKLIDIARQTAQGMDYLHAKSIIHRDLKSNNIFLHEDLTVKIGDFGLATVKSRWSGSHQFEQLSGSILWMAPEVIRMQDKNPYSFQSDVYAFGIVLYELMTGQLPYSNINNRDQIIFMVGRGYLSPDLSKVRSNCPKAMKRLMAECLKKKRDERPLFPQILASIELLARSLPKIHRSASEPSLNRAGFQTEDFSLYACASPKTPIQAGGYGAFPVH
Mitogen-activated protein kinase 10, sequence (P53779 whole entry): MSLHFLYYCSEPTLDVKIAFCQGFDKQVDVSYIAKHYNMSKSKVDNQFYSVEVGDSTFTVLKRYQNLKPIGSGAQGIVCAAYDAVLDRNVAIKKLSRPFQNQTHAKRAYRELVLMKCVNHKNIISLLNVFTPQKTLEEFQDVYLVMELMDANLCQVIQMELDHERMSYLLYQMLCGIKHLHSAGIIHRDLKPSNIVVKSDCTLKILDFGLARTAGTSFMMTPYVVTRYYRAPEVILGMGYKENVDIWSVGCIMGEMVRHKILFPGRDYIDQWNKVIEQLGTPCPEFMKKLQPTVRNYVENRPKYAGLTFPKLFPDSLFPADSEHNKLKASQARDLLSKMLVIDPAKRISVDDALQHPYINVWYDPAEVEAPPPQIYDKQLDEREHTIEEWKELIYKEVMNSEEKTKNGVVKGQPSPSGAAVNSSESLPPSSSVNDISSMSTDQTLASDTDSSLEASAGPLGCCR
Ephrin type-A receptor 4, sequence (P54764 whole entry): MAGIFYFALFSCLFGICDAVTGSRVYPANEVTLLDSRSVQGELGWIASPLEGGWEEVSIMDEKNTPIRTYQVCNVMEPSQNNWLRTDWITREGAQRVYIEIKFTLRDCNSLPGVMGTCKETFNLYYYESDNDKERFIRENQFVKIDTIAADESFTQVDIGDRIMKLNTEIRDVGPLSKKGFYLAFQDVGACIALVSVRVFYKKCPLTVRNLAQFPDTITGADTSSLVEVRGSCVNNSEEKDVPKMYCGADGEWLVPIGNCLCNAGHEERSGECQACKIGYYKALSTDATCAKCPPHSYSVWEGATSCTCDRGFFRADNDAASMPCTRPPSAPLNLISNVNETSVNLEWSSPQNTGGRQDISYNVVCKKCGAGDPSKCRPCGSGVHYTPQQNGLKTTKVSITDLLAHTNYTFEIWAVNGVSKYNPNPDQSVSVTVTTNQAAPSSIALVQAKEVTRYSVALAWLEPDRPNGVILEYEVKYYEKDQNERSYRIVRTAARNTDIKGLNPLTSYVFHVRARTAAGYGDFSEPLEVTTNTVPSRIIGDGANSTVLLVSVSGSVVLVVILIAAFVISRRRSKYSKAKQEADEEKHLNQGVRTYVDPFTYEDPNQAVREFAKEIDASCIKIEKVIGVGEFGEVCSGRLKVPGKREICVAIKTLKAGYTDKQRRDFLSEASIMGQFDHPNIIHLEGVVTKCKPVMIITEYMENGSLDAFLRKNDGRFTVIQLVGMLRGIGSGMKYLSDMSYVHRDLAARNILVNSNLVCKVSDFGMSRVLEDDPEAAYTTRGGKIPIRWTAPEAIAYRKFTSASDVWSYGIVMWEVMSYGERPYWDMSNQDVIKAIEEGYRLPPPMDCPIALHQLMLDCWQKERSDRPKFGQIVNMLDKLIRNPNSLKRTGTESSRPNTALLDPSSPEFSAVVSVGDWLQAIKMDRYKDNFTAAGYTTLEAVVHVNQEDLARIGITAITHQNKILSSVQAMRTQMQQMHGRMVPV

Broadly, the Kd is the free concentration of one partner at which half of the binding sites on the other are occupied at equilibrium, for simple one-to-one binding. As to `CO[C@H]1C[C@@H]2CC[C@@H](C)[C@@](O)(O2)C(=O)C(=O)N2CCCC[C@H]2C(=O)O[C@H]([C@H](C)C[C@@H]2CC[C@@H](OP(C)(C)=O)[C@H](OC)C2)CC(=O)[C@H](C)/C=C(\C)[C@@H](O)[C@@H](OC)C(=O)[C@H](C)C[C@H](C)/C=C/C=C/C=C/1C` [RIDAFOROLIMUS], the Kd in test [1], in test [2], in test [3], in [4], in test [5] and in test [6] was > 30 µM (inactive) each time. Moreover, the Kd (on Ephrin type-A receptor 4; in [7]; in test [8]; in [9]; in test [10]; in test [11]) was > 30 µM (inactive) throughout. For the same compound, the Kd in test [12], in test [13], in test [14] and in test [15] was > 30 µM (inactive) in each case.

Consider `O=c1[nH]ccc2cc(OC3CCNCC3)ccc12` [SAR-407899 FREE BASE], for which the Kd in test [1], in test [2], in [3], in [4], in test [5] and in [6] was > 30 µM (inactive) throughout. Further, the Kd at Ephrin type-A receptor 4 was > 30 µM (inactive); in test [7], > 30 µM (inactive); in test [8], > 30 µM (inactive); in [9] it was 0.004 µM; in test [10], > 30 µM (inactive); in test [11] it was > 30 µM (inactive). Also, the Kd in test [12], in [13], in test [14] and in [15] was > 30 µM (inactive) in each case.

For `CN1CCN(CCOc2cc(OC3CCOCC3)c3c(Nc4c(Cl)ccc5c4OCO5)ncnc3c2)CC1` [SARACATINIB], the Kd in test [1], in test [2], in test [3], in test [4], in test [5] and in [6] was > 30 µM (inactive) in each case. For the same compound, the Kd was 0.917 µM (active) on Ephrin type-A receptor 4; > 30 µM (inactive) in test [7]; > 30 µM (inactive) in test [8]; > 30 µM (inactive) in test [9]; > 30 µM (inactive) in test [10]; > 30 µM (inactive) in [11]. The Kd in [12], in test [13], in test [14] and in test [15] was > 30 µM (inactive) throughout.

On to `Cn1cc(-c2cnn3c(N)c(Br)c([C@@H]4CCCNC4)nc23)cn1` [SCH-900776], for which the Kd in [1], in test [2], in test [3], in test [4], in test [5] and in test [6] was > 30 µM (inactive) in each case. In addition, the Kd (at Ephrin type-A receptor 4; in test [7]; in [8]; in [9]; in test [10]; in test [11]) was > 30 µM (inactive) throughout. Besides, the Kd in test [12], in test [13], in test [14] and in test [15] was > 30 µM (inactive) each time.

`CO[C@H]1C[C@@H]2CC[C@@H](C)[C@@](O)(O2)C(=O)C(=O)N2CCCC[C@H]2C(=O)O[C@H]([C@H](C)C[C@@H]2CC[C@@H](O)[C@H](OC)C2)CC(=O)[C@H](C)/C=C(\C)[C@@H](O)[C@@H](OC)C(=O)[C@H](C)C[C@H](C)/C=C/C=C/C=C/1C` [SIROLIMUS]: the Kd in test [1], in test [2], in test [3], in test [4], in test [5] and in [6] was > 30 µM (inactive) throughout. The Kd (on Ephrin type-A receptor 4; in test [7]; in [8]; in [9]; in [10]; in [11]) was > 30 µM (inactive) each time. Besides, the Kd in [12], in [13], in [14] and in test [15] was > 30 µM (inactive) in each case.

In the case of `CO[C@H]1C[C@@H]2CC[C@@H](C)[C@@](O)(O2)C(=O)C(=O)N2CCCC[C@H]2C(=O)O[C@H]([C@H](C)C[C@@H]2CC[C@@H](OC(=O)C(C)(CO)CO)[C@H](OC)C2)CC(=O)[C@H](C)/C=C(\C)[C@@H](O)[C@@H](OC)C(=O)[C@H](C)C[C@H](C)/C=C/C=C/C=C/1C` [TEMSIROLIMUS], the Kd in [1], in test [2], in test [3], in test [4], in test [5] and in [6] was > 30 µM (inactive) throughout. The Kd (at Ephrin type-A receptor 4; in [7]; in [8]; in test [9]; in [10]; in test [11]) was > 30 µM (inactive) throughout. Besides, the Kd in test [12], in [13], in [14] and in [15] was > 30 µM (inactive) each time.
